# Results as given in patent publication US6689381B2, “Liposomal benzoquinazoline thymidylate synthase inhibitor formulations” (OSI Pharmaceuticals, Inc., priority 2000, dated 2004).
# Key:
# [1] = system: human colon tumor xenograft model (HCT-8, thymidine kinase (TK)-/-); test: HCT-8 xenograft, second study: liposomal GW1843U89 versus free drug (Table 26); assay type: in vivo, Female Nu/Nu mice
# Description: Female Nu/Nu mice (18-24 g, 10-14 weeks old) were obtained from Harlan Sprague Dawley, and housed in microisolator filtration racks and maintained with filtered acidified water and sterile lab chow ad libitum. The human colon tumor xenograft model (HCT-8, thymidine kinase (TK)−/−) was obtained from Dr. Youcef M. Rustum (Roswell Park, Buffalo, N.Y.), and established in-house as a useful model for evaluation of thymidylate synthase inhibitors. Animals were allowed to acclimate to their new environment for 1 week prior to tumor cell implantation. Tumors were established by injecting harvested tumor cells in a single subcutaneous site on the flank of the mice in the axillary region. The tumors were grown until approximately 200+/−50 mm^3 in size. The animals were then sorted according to body weight, grouped four animals/cage, and tattooed on the tail for permanent identification. […] Tumor volumes were determined with vernier caliper measurements taken at right angles using the formula, (L×W^2/2) and body weights, were collected twice weekly. Data was plotted as % change in body weight vs. time in days, and % tumor volume increase vs. days.
# T=(mean) time in days for treated group to reach cutoff size (2 grams)
# C=(mean) time in days for control group to reach cutoff size (2 grams)
# WC is the mean tumor weight of control group at time x
# Wt is mean tumor weight of treated group at time x
# % Regression=100 (Wo−Wi)/Wo; where Wo is the mean tumor weight for treated group at the initiation of treatment and Wi=the mean tumor weight for that group at time some time x after treatment. Many times the time x=24-48 hr after the final dose of therapy.
# The log10 cell kill (gross)=[T−C value in days/(3.32)(Td)
# Where T−C=time difference in days between Treated and Control tumors to reach a defined end point; and Td is the Tumor Volume Doubling time in days from the best-fit straight line from a log-linear growth plot of the control tumors exponential growth (100-800 mg range). […]
# in vivo = test: in vivo; parameters: species or system Male Sprague-Dawley rats; conditions: male, Sprague-Dawley, rat, iv, 1 mg/kg
# Experimental: GW1843 (M.W. 500.51 g/mol) was obtained from Glaxo Wellcome, Inc. and suspended as an aqueous. Briefly, 616.74 milligrams of GW1843 was suspended in 1.4 mL 2 N NaOH. The solution was mixed until dissolved. To the dissolved solution 30 mL saline was added. The pH was adjusted to 7.15 with 2 N HCl. Finally, the solution was brought to 46.545 mL with saline. The nominal concentration was 13.25 mg/mL. UV absorption in 0.1 N sodium hydroxide at 266 nm, based on an extinction coefficient of 4.34×104 cm^−1 M^−1, determined the concentration. The concentration by UV spectroscopy was 13.97 mg/mL (5.4% difference from expected). The value determined by spectroscopy was utilized for standards in the HPLC assay. NX1843 lot SMC-991-96 (see Table 1A) was used for making quality control solutions.
# Male Sprague-Dawley rats weighing 343.91 to 420.19 grams were used for the study. The in-life phase of the study was conducted in Boulder Colo. in accordance with the guidelines for animal welfare and care (NRC Publication Guide for the Care and Use of Laboratory Animals, 1996). IACUC protocol number N98010. Animals were allowed free access to food and water before and during treatment.
# Individual animals treated with NX1843 were weighed and dosed at 1 mg/kg body weight by intravenous bolus administration into the tail vein while under isoflurane anesthesia.
# Serial EDTA-blood samples (0.5 mL) were obtained at 5, 15, 30 and 45 minutes, and 1, 1.5 and 2 hr post-dosing for the GW1843 group while animals were under isoflurane anesthesia. For the NX1843 group, serial EDTA-blood samples (0.5 mL) were obtained at 10, 30 and 90 minutes and 4, 8, 24, 32, 48, 72 and 96 hours post-dosing. The EDTA-blood samples were immediately processed for plasma and plasma samples were stored at −20° C. until analysis.
# An isocratic reverse phase high performance liquid chromatographic (HPLC) procedure was used for rapid determination of the total GW1843 concentration in rat EDTA-plasma. Following methanol precipitation of plasma protein (2 parts methanol to 1 part plasma), the protein was removed by centrifugation at 14,000×g for 10 minutes. A ZORBAX Eclipse™ XBD-C18 column (3 mm×15 cm) configured with a guard column was used to separate the soluble GW1843 (injection volume 20 μL). The HPLC buffer consisted of 80% 100-mM ammonium acetate pH 5.3, and 20% acetonitrile and the flow rate was 0.4 mL/min. The total run time was seven minutes and GW1843 was detected and quantified by ultraviolet absorbance at 264 nm. The standard curve consisted of free GW1843 spiked rat EDTA-plasma while the quality control samples consisted of NX1843 spiked rat EDTA-plasma. The range of the standard curve was 0.1 to 30.0 μg/mL.
# The pharmacokinetic parameters for total GW1843 after i.v administration of GW1843 or liposome encapsulated GW1843 were assessed by a non-compartmental method using WinNonlin (version 1.5). The log/linear trapazoidal rule was used. For non-compartmental analysis, all three time points were utilized for the estimation the elimination phase for free GW1843 while the last 5 time points were utilized to estimate the elimination half-life of NX1843. Cmax values were estimated by extrapolation to zero time. Pharmacokinetic parameters were determined for each animal in the study. From values obtained in each group the mean and SD of each parameter was determined. The parameters estimated included:
# The observed clearance (CL) of GW1843 following administration was calculated as: […]
# Comparison of treatment groups was performed by unpaired t-tests of data obtained in the same experiment. A p-value of <0.05 was considered significant. Tests were performed using GraphPad Instat version 1.0 (GraphPad Software).
# [2] = Concentration of GW1843 in Plasma
smiles,measurement,setting,value
Cc1nc2ccc3ccc(CNc4ccc5c(c4)CN(C(CCC(=O)O)C(=O)O)C5=O)cc3c2c(=O)[nH]1 (stereo not drawn) [GW1843],log cell kill,[1]; 25 mg/kg every day (total 350 mg/kg),1.5
same,log cell kill,[1]; 50 mg/kg every day (total 700 mg/kg),3.5
same,tumor regression,[1]; 25 and 50 mg/kg every day,no tumor regression occurred
same,volume of distribution of free drug relative to the liposome formulation,in vivo,~14.6 fold
same,AUC(0-inf),in vivo; AUC(0-inf),270 ± 28 ng·h/mL
same,AUC(0-t),in vivo; AUC(0-last),250 ng·h/mL
same,clearance,in vivo; CL,61 mL/min/kg
same,Cmax,in vivo; Cmax,1620 to 1990 ng/mL
same,concentration at 0.083 hr,in vivo; [2],991 ng/mL
same,concentration at 0.25 hr,in vivo; [2],214 ng/mL
same,concentration at 0.5 hr,in vivo; [2],117 ng/mL
same,MRT inf,in vivo; MRT(0-inf),10.8 min
same,half-life,in vivo; T½ (terminal half-life),8.52 ± 0.42 min
same,Vd,in vivo; Vss,0.654 L/kg
same,clearance,in vivo; plasma clearance,62.3 mL/min
